From patent US11173156B2, “Solid forms of a kynurenine-3-monooxygenase inhibitor” (CHDI Foundation, Inc., priority 2019, dated 2021)
“Also recorded” adds a separate entry of the source.

How the values were obtained:
Assay type in all cases: physicochemical
[1] = Slurry experiments (form stability); settings: for relative stability of the form (in words): at the conditions evaluated
Description: Solutions were prepared by adding enough solids to a given solvent so that excess solids were present. The mixture was then agitated in a sealed vial at either ambient or an elevated temperature. After a given amount of time, the solids were isolated for analysis.
The formation and stability of solid forms of the sodium salt of Compound I was further evaluated via slurry experiments. The slurries were formed by combining Compound I sodium Pattern A and a solvent, and allowing the slurry to equilibrate at room temperature. If a free flowing slurry was not achieved, an additional amount of the respective solvent was added before the room temperature equilibration step. All slurries were isolated via centrifuge filtration after five days and twelve days of equilibration. The solids were analyzed by XRPD to check for pattern conversion (Table 13).

[2] = Competitive slurry experiments
Description: Competitive slurry experiments were also conducted to evaluate form stability of the solid forms of the sodium salt of Compound I. Slurries were prepared by combining Compound I sodium Pattern A, Form B, Pattern C and Pattern D with a solvent, allowing the slurry to equilibrate with stirring at room temperature. The slurries were analyzed at three day and ten day time points, filtered, and analyzed by XRPD (Table 14).

[3] = Stability at elevated temperatures (XRPD, HPLC); settings: for HPLC: after storage at 60 ° C. (time point not given)
Description: The stability of Compound I sodium Patterns A, C, and D and Form B, at about 60° C. was evaluated. These forms were weighed into vials covered with a Kimwipe tissue and stored in an oven at 60° C. and ambient pressure. After three days and ten days of exposure, the solids were analyzed by XRPD to check for form conversion. […].

[4] = Approximate aqueous solubility of salts/co-crystals (visual, solvent addition method); settings: water, thermodynamic from solid, free acid solids retained from filtered aqueous phase, portion rinsed with water, read-out: solubility observed
[5] = Physical stability on drying, ambient exposure or heating
[6] = Water activity interconversion slurries; settings: for water activity at which the form is stable / favored: competitive water activity slurries
Excerpt: The resulting solid phase was characterized by XRPD (Table 16). The experiments establish the physically stable form at various aw.
Water activity is related to relative humidity in that RH %=aw×100. Therefore, it is possible to directly relate the stability of an anhydrous/hydrate system in slurry experiments to solid state stability. Slurry technique at controlled water activities provides an accurate method of rapidly predicting the physically stable form in anhydrous/hydrate systems. This method is particularly valuable when relatively slow kinetics of conversion in the solid state prevents reaching true equilibrium in a reasonable timeframe, since solvent-mediated transformation accelerates the conversion process.

[7] = Stability at elevated temperatures (XRPD, HPLC)
[8] = Approximate aqueous solubility of salts/co-crystals (visual, solvent addition method); settings: water
Description: (§1) A weighed sample was treated with aliquots of the test solvent at room temperature. The mixture was sonicated between additions to facilitate dissolution. Complete dissolution of the test material was determined by visual inspection. Solubility was estimated based on the total solvent used to provide complete dissolution. Some samples were then heated and observed visually for complete dissolution. The actual solubility may be greater than the value calculated because of the use of solvent aliquots that were too large or due to a slow rate of dissolution. […] If complete dissolution was achieved as a result of only one aliquot addition, the solubility is expressed as “greater than.”

[9] = Deliquescence of salts/co-crystals during exposure to 75% RH; settings: ambient temperature, 3 day exposure
Description: The salts identified from the salt/co-crystal screen of Compound I (see section 4 above) were assessed visually for deliquescence during exposure to 75% RH at ambient temperature (Table 5). […] The materials from these experiments were recovered and re-analyzed by XRPD to determine if changes in solid form occurred.

[10] = XRPD analysis of remaining solids from aqueous solubility assessments; settings: solids recovered from mother liquor of aqueous solubility assessment
Excerpt: Compound I ethylenediamine A+B disproportionated, as peaks similar to those observed for Compound I free acid Material C were observed.

[11] = Solubility of Compound I sodium salt forms in solvents and binary solvent systems
Description: as §1

[12] = Dynamic vapor sorption/desorption (DVS)
Description: Moisture sorption/desorption data were collected on a VTI SGA-100 Vapor Sorption Analyzer. NaCl and PVP were used as calibration standards. Samples were not dried prior to analysis. Sorption and desorption data were collected over a range from 5% to 95% RH at 10% RH increments under a nitrogen purge. The equilibrium criterion used for analysis was less than 0.0100% weight change in 5 minutes with a maximum equilibration time of 3 hours. Data were not corrected for the initial moisture content of the samples.

With `O=C(O)c1cc(-c2ccc(OC3CC3)c(Cl)c2)ncn1` [Compound I sodium Pattern D, 6-(3-chloro-4-cyclopropoxyphenyl)pyrimidine-4-carboxylic acid] the “form conversion in slurry / trituration” value ([1]; acetone and/or isopropanol (trituration, single form or competitive slurry)) was “converted to Compound I sodium Form B”, the “relative stability of the form (in words)” value [1] was “not stable” and the “form conversion in competitive slurry” value ([2]; water) was “Compound I sodium Form B”. For the same compound, the “chemical and physical form changes after storing at elevated temperature” value ([3]; about 60° C.) was “No chemical and physical form changes were observed” and the HPLC [3] was greater than 99.9 % AUC.

For `O=C(O)c1cc(-c2ccc(OC3CC3)c(Cl)c2)ncn1` [Compound I, 6-(3-chloro-4-cyclopropoxyphenyl)pyrimidine-4-carboxylic acid], the solubility [4] was less than 4000 µg/mL.

In the case of `O=C(O)c1cc(-c2ccc(OC3CC3)c(Cl)c2)ncn1` [Compound I sodium Pattern F, 6-(3-chloro-4-cyclopropoxyphenyl)pyrimidine-4-carboxylic acid], the “effect of exposure to ambient” value ([5]; ambient for about 1 day) is reported as “become disordered”.

For `O=C(O)c1cc(-c2ccc(OC3CC3)c(Cl)c2)ncn1` [Compound I sodium amorphous, 6-(3-chloro-4-cyclopropoxyphenyl)pyrimidine-4-carboxylic acid], the “form conversion on heating” value ([5]; heated to about 150° C.) was “converts to Compound I sodium Form B”.

With `O=C(O)c1cc(-c2ccc(OC3CC3)c(Cl)c2)ncn1` [Compound I sodium Form E, 6-(3-chloro-4-cyclopropoxyphenyl)pyrimidine-4-carboxylic acid] the “form conversion in competitive slurry” value ([2]; acetone and water) was “converted to Compound I sodium Form B”, the “water activity at which the form is stable / favored” value [6] was no less than 0.91 aw and the “Results (XRPD form)” value ([7]; 65° C., after 20 min and after 50 min) was “Form B”. The “Results (XRPD form)” value ([7]; 78° C., 18 days) was “Form B”, the “Results (XRPD form)” value ([7]; 205° C., briefly) was “Form B + peaks” and the “Results (XRPD form)” value ([7]; under N2: heat to 175° C. then cooled to 150° C., held for 10 minutes) was “Form B + peaks”.

With `O=C(O)c1cc(-c2ccc(OC3CC3)c(Cl)c2)ncn1` [Compound I sodium Form B, 6-(3-chloro-4-cyclopropoxyphenyl)pyrimidine-4-carboxylic acid] the “aqueous solubility (in words)” value [8] was “desirable aqueous solubility; also recorded: good aqueous solubility”, the solubility ([8]; estimated visually, solvent addition method) was 4000 µg/mL and the “Result (XRPD after exposure)” value ([9]; listed as Sodium B) was “Sodium B”. For the same compound, the “Observation (deliquescence)” value ([9]; visual) was “no deliquescence”, the “Result (XRPD of remaining solids)” value [10] was “remained unchanged by XRPD” and the “Result (XRPD of remaining solids)” value ([10]; listed as Sodium B) was “Sodium B”. The solubility ([11]; Methanol, ambient) was 6 mg/mL loading, the solubility ([11]; Water, ambient) was 2 mg/mL loading and the solubility ([11]; organic solvent or mixture, thermodynamic from solid, Acetone, 55° C., read-out: Solubility) was less than 2000 µg/mL. It also gave a solubility ([11]; organic solvent or mixture, thermodynamic from solid, Acetone, ambient, read-out: Solubility) of less than 2000 µg/mL, a solubility ([11]; organic solvent or mixture, thermodynamic from solid, Acetone/water, 94:6 v/v, 55° C., read-out: Solubility) of less than 2000 µg/mL and a solubility ([11]; organic solvent or mixture, thermodynamic from solid, Acetone/water, 94:6 v/v, ambient, read-out: Solubility) of less than 2000 µg/mL. For the same compound, the solubility ([11]; organic solvent or mixture, thermodynamic from solid, Acetonitrile, 55° C., read-out: Solubility) was less than 2000 µg/mL, the solubility ([11]; organic solvent or mixture, thermodynamic from solid, Acetonitrile, ambient, read-out: Solubility) was less than 2000 µg/mL and the solubility ([11]; organic solvent or mixture, thermodynamic from solid, Acetonitrile/water, 83:17 v/v, ambient, read-out: Solubility) was 2000 µg/mL. For the same compound, the solubility ([11]; organic solvent or mixture, thermodynamic from solid, Ethanol, 55° C., read-out: Solubility) was less than 2000 µg/mL, the solubility ([11]; organic solvent or mixture, thermodynamic from solid, Ethanol, ambient, read-out: Solubility) was less than 2000 µg/mL and the solubility ([11]; organic solvent or mixture, thermodynamic from solid, Ethanol/water, 88:12 v/v, 55° C., read-out: Solubility) was roughly 2000 µg/mL. The solubility ([11]; organic solvent or mixture, thermodynamic from solid, Ethanol/water, 88:12 v/v, ambient, read-out: Solubility) was roughly 2000 µg/mL, the solubility ([11]; organic solvent or mixture, thermodynamic from solid, Isopropanol, 55° C., read-out: Solubility) was less than 2000 µg/mL and the solubility ([11]; organic solvent or mixture, thermodynamic from solid, Isopropanol, ambient, read-out: Solubility) was less than 2000 µg/mL. For the same compound, the solubility ([11]; organic solvent or mixture, thermodynamic from solid, Isopropanol/water, 91:9 v/v, 55° C., read-out: Solubility) was less than 2000 µg/mL, the solubility ([11]; organic solvent or mixture, thermodynamic from solid, Isopropanol/water, 91:9 v/v, ambient, read-out: Solubility) was less than 2000 µg/mL and the solubility ([11]; thermodynamic from solid, Water, ambient, read-out: Solubility) was no less than 6000 µg/mL. The “hygroscopicity by DVS analysis (in words)” value [12] was “hygroscopic”, the “DVS weight loss upon equilibration at about 5% RH” value ([12]; about 5% RH) was “about 0.03%” and the “material recovered from the DVS analysis compared with starting material by XRPD” value ([12]; after DVS) was “substantially the same as the starting material”. The DVS weight gain ([12]; from about 5 to about 95% RH) was roughly 5.39%, the DVS weight loss ([12]; from about 95% to about 5% RH) was roughly 5.14% and the “gain observed by DVS analysis” value ([12]; sorption cycle) was roughly 5 wt %. For the same compound, the “stability in slurry (in words)” value ([1]; IPA and acetone) was “stable for about at least seven days”, the “relative stability of the form (in words)” value [1] was “predominant and most thermodynamically stable form; also recorded: most thermodynamically stable anhydrate form” and the “chemical and physical form changes after storing at elevated temperatures” value ([3]; about 60° C. and about 78° C.) was “No chemical and physical form changes were observed”. For the same compound, the HPLC [3] was greater than 99.9 % AUC, the “Results (XRPD form)” value ([6]; 0.33 aw, 16:84 H2O/DMF, 6 days) was “Form B” and the “Results (XRPD form)” value ([6]; 0.39 aw, 15:85 H2O/MeOH, 6 days) was “Form B”. The “Results (XRPD form)” value ([6]; 0.50 aw, 30:70 H2O/DMF, 6 days) was “Form B”, the “Results (XRPD form)” value ([6]; 0.58 aw, 6:94 H2O/Acetone, 6 days) was “Form B” and the “Results (XRPD form)” value ([6]; 0.70 aw, 50:50 H2O/DMF, 6 days) was “Form B”. For the same compound, the “Results (XRPD form)” value ([6]; 0.86 aw, 70:30 H2O/MeOH, 6 days) was “Form B”, the “Results (XRPD form)” value ([6]; 0.91 aw, 50:50 H2O/Acetone, 1 day) was “Form E” and the “Results (XRPD form)” value ([6]; 0.98 aw, 90:10 H2O/Acetone, 6 days) was “Form E”. For the same compound, the “water activity at which the form is stable / favored” value [6] was no more than 0.86 aw.
